Measured values published in US20230114627A1, “COMPOSITION COMPRISING A METAL ASCORBO-CAMPHORATE COMPOUND AND METHOD FOR PREVENTION AND/OR TREATMENT OF PAPILLOMAVIRUS INFECTIONS” (MGB PHARMA Inc., priority 2020, published 2023).

Tests used:
Type in all cases: cell-based
Vero cells = experiment: MTT cytotoxicity assay on Vero cells
Experimental: (§1) The cytotoxicity study was conducted on three types of cells: on Vero cells, on human diploid MRC5 cells (human fibroblast and embryonic type), and on Cos-7 cells. […] The latter forms crystals with the highly metabolic living cells.
(§2) The absorbance at 490 nm of the dissolved crystals corresponds to the number of living cells.
In a first series of tests, the Cytotoxicity of said ascorbo-camphorate on Vero cells was verified with these solutions at dilution rates ranging from one tenth to one billionth.

human diploid MRC5 cells = experiment: MTT cytotoxicity assay on MRC5 cells
Experimental: as §1, §2
In a second series of tests, the cytotoxicity of said ascorbo-camphorate on MRC5 cells was tested with the solutions at dilution ratios ranging from 0 to 100 millionths.

Cos-7 cells = experiment: Colorimetric cell viability assay on Cos-7 cells; settings: 24 hours, estimated; read-out: 50% cytotoxic concentration (CC50)
Experimental: as §1
In a third series of tests, the cytotoxicity of said ascorbo-camphorate on Cos-7 cells was verified. High concentrations of said ascorbo-camphorate may be required to produce an effective formulation. Therefore, the intrinsic toxicity of concentrations of said ascorbo-camphorate up to 5,000 μg/mL was evaluated using a colorimetric cell viability assay. Cos-7 cells were exposed to serial dilutions of the stock solution of said ascorbo-camphorate for 24 hours.
The viability index, or the fraction of viable cells after microbicide treatment relative to the fraction of viable cells exposed to the control condition, was calculated. Cells treated with 0.1% PBS-azide solution were used as a positive control for toxicity. The viability index, or the fraction of viable cells after treatment with the compound “AC” relative to the fraction of viable cells exposed to the natural state, was calculated. […] The 50% cytotoxic concentration (CC50) of said ascorbic camphorate was calculated using a dose-response-inhibition analysis on GraptiPad Prism v5.04 software (from GraphPad Software).

[1] = test system: HEC-1A (line of endocervical origin); experiment: XTT cell viability (KIT Tox-2) on HEC-1A; settings: 24 hours, 1 μM to 500 μM tested
Experimental: (§3) In this example, the cell viability as a measure of non-toxicity was assessed using KIT Tox-2 XTT Sigma Aldrich, where cell viability was measured in terms of the ability of cells to degrade a colorless compound into a colored compound (mitochondrial enzymes) using color intensity as being proportional to the cell viability. Three cell lines as models were used including HEC-1A (line of endocervical origin), SiHa (vaginal cells), and CaCo-2 (intestinal cells). […] KIT Tox-2 XTT Sigma Aldrich.

SiHa (vaginal cells) = experiment: XTT cell viability (KIT Tox-2) on SiHa; settings: 24 hours, 1 μM to 500 μM tested
Experimental: as §3

[2] = test system: CaCo-2 (intestinal cells); experiment: XTT cell viability (KIT Tox-2) on CaCo-2; settings: CaCo-2, 24 hours, 1 μM to 500 μM tested
Experimental: as §3

HEC-1A = experiment: Transepithelial electrical resistance (TEER) of HEC-1A monostratified epithelium; settings: up to 500 μM, 24 hours
CaCo-2 = experiment: Transepithelial electrical resistance (TEER) of CaCo-2 monostratified epithelium; settings: CaCo-2, up to 500 μM, 24 hours

Question: Which results are given for zinc tetra-ascorbo-camphorate [C14]?
Answer: percentage of living cells remaining (Vero cells; 50-fold dilution of 0.05155 M stock): greater than or equal to 50%; molarity of solutions tolerable by Vero cells (upper limit, value excluded) (Vero cells; lower limit tested 5.15.10^−5 μM): < 1031 µM; molarity of solutions tolerable by MRC5 cells (upper limit, exclusive value) (human diploid MRC5 cells; lower limit tested 5.15.10-4 μM): < 5155 µM; percentage of living cells remaining (human diploid MRC5 cells; one-tenth dilution of 0.05155 M stock): greater than or equal to 50%; CC50 (Cos-7 cells): > 5.15 mM; concentrations without toxicity to epithelial cells [1]: less than or equal to 125 μM; concentrations without toxicity to epithelial cells (SiHa (vaginal cells)): less than or equal to 125 μM; concentrations without toxicity to epithelial cells [2]: less than or equal to 125 μM; effect on TEER (HEC-1A): does not affect the TEER; effect on TEER (CaCo-2): does not affect the TEER
